Assay results reported in patent publication US20240108725A1, “METHOD FOR TREATING CANCER AND SYSTEM FOR SAME” (OTSUKA MEDICAL DEVICES CO., LTD, priority 2020, published 2024).

Test system: C6 cells
Assay: Rate of dead cells after 5-ALA PDT in erythrocyte solution, C6 cells, Example 3
Type: cell-based, rat
Procedure: C6 cells or human leukemia cell line TL-Oml cells were cultured in 2.5% FBS/F-12K medium (C6 cells) or 10% FBS/RPMI1640 (TL-Oml cells) supplemented with 5-ALA to a final concentration of 0.125 to 0.5 mM in a 5% CO2 incubator at 37° C. for 4 hours. After the culture, the cells were removed with a 0.25% trypsin-EDTA solution, and the collected cells were adjusted to 2×10^7 cells/mL with an erythrocyte solution (a solution in which erythrocytes and PBS were mixed at a ratio of 45:55). The cell suspension thus prepared was injected into a Tygon tube (inner diameter: 0.79 mm), wrapped around a light irradiator, and irradiated with light having a wavelength of 630 nm so that the irradiation energy density was 0.5 to 500 J/cm^2. After the irradiation, an ammonium chloride solution was added to the cell suspension to hemolyze the erythrocytes. Cells before the PDT treatment, after the PDT treatment, and after 24-hour culture were stained with the FITC Annexin V Apoptosis Detection Kit I and the rate of dead cells was analyzed with a flow cytometer.

[1] = 5-ALA 0.125 mM, 20 J/cm^2, 24 hours after irradiation
[2] = 5-ALA 0.125 mM, 20 J/cm^2, immediately after irradiation
[3] = 5-ALA 0.125 mM, 50 J/cm^2, 24 hours after irradiation
[4] = 5-ALA 0.125 mM, 50 J/cm^2, immediately after irradiation
[5] = 5-ALA 0.125 mM, 100 J/cm^2, 24 hours after irradiation
[6] = 5-ALA 0.125 mM, 100 J/cm^2, immediately after irradiation
[7] = 5-ALA 0.125 mM, 400 J/cm^2, 24 hours after irradiation
[8] = 5-ALA 0.125 mM, 400 J/cm^2, immediately after irradiation
[9] = 5-ALA 0.125 mM, 500 J/cm^2, 24 hours after irradiation
[10] = 5-ALA 0.125 mM, 500 J/cm^2, immediately after irradiation
[11] = 5-ALA 0.25 mM, 2.5 J/cm^2, 24 hours after irradiation
[12] = 5-ALA 0.25 mM, 2.5 J/cm^2, immediately after irradiation
[13] = 5-ALA 0.25 mM, 5 J/cm^2, 24 hours after irradiation
[14] = 5-ALA 0.25 mM, 5 J/cm^2, immediately after irradiation
[15] = 5-ALA 0.25 mM, 250 J/cm^2, 24 hours after irradiation
[16] = 5-ALA 0.25 mM, 250 J/cm^2, immediately after irradiation
[17] = 5-ALA 0.25 mM, 300 J/cm^2, 24 hours after irradiation
[18] = 5-ALA 0.25 mM, 300 J/cm^2, immediately after irradiation
[19] = 5-ALA 0.25 mM, 350 J/cm^2, 24 hours after irradiation
[20] = 5-ALA 0.25 mM, 350 J/cm^2, immediately after irradiation
[21] = 5-ALA 0.5 mM, 0.5 J/cm^2, 24 hours after irradiation
[22] = 5-ALA 0.5 mM, 0.5 J/cm^2, immediately after irradiation
[23] = 5-ALA 0.5 mM, 1 J/cm^2, 24 hours after irradiation
[24] = 5-ALA 0.5 mM, 1 J/cm^2, immediately after irradiation
[25] = 5-ALA 0.5 mM, 2.5 J/cm^2, 24 hours after irradiation
[26] = 5-ALA 0.5 mM, 2.5 J/cm^2, immediately after irradiation
[27] = 5-ALA 0.5 mM, 100 J/cm^2, 24 hours after irradiation
[28] = 5-ALA 0.5 mM, 100 J/cm^2, immediately after irradiation
[29] = 5-ALA 0.5 mM, 350 J/cm^2, 24 hours after irradiation
[30] = 5-ALA 0.5 mM, 350 J/cm^2, immediately after irradiation
[31] = 5-ALA 0.5 mM, 400 J/cm^2, 24 hours after irradiation
[32] = 5-ALA 0.5 mM, 400 J/cm^2, immediately after irradiation
[33] = 5-ALA 0.5 mM, 500 J/cm^2, 24 hours after irradiation
[34] = 5-ALA 0.5 mM, 500 J/cm^2, immediately after irradiation

## NCC(=O)CCC(=O)O [5-ALA, 5-aminolevulinic acid]
[1]
  Annexin V+/PI+ (%): 2%
  Annexin V+/PI− (%): 3%
  Annexin V-/PI− (%): 95%
[2]
  Annexin V+/PI+ (%): 2%
  Annexin V+/PI− (%): 1%
  Annexin V−/PI− (%): 97%
[3]
  Annexin V+/PI+ (%): 3%
  Annexin V+/PI− (%): 3%
  Annexin V-/PI− (%): 94%
[4]
  Annexin V+/PI+ (%): 3%
  Annexin V+/PI− (%): 1%
  Annexin V−/PI− (%): 95%
[5]
  Annexin V+/PI+ (%): 4%
  Annexin V+/PI− (%): 4%
  Annexin V-/PI− (%): 92%
[6]
  Annexin V+/PI+ (%): 4%
  Annexin V+/PI− (%): 1%
  Annexin V−/PI− (%): 95%
[7]
  Annexin V+/PI+ (%): 10%
  Annexin V+/PI− (%): 5%
[8]
  Annexin V+/PI+ (%): 6%
  Annexin V+/PI− (%): 1%
  Annexin V−/PI− (%): 93%
[9]
  Annexin V+/PI+ (%): 27%
  Annexin V+/PI− (%): 9%
[10]
  Annexin V+/PI+ (%): 17%
  Annexin V+/PI− (%): 0%
  Annexin V−/PI− (%): 82%
[11]
  Annexin V+/PI+ (%): 2%
  Annexin V+/PI− (%): 5%
  Annexin V−/PI− (%): 93%
[12]
  Annexin V+/PI+ (%): 2%
  Annexin V+/PI− (%): 1%
  Annexin V−/PI− (%): 97%
[13]
  Annexin V+/PI+ (%): 5%
  Annexin V+/PI− (%): 8%
  Annexin V−/PI− (%): 88%
[14]
  Annexin V+/PI+ (%): 3%
  Annexin V+/PI− (%): 1%
  Annexin V−/PI− (%): 96%
[15]
  Annexin V+/PI+ (%): 59%
  Annexin V+/PI− (%): 8%
  Annexin V−/PI− (%): 23%
[16]
  Annexin V+/PI+ (%): 70%
  Annexin V+/PI− (%): 0%
  Annexin V−/PI− (%): 28%
[17]
  Annexin V+/PI+ (%): 86%
  Annexin V+/PI− (%): 4%
  Annexin V−/PI− (%): 10%
[18]
  Annexin V+/PI+ (%): 83%
  Annexin V+/PI− (%): 0%
  Annexin V−/PI− (%): 14%
[19]
  Annexin V+/PI+ (%): 96%
  Annexin V+/PI− (%): 1%
  Annexin V−/PI− (%): 2%
[20]
  Annexin V+/PI+ (%): 91%
  Annexin V+/PI− (%): 0%
  Annexin V−/PI− (%): 6%
[21]
  Annexin V+/PI+ (%): 2%
  Annexin V+/PI− (%): 3%
  Annexin V−/PI− (%): 95%
[22]
  Annexin V+/PI+ (%): 3%
  Annexin V+/PI− (%): 2%
  Annexin V−/PI− (%): 95%
[23]
  Annexin V+/PI+ (%): 2%
  Annexin V+/PI− (%): 3%
  Annexin V−/PI− (%): 95%
[24]
  Annexin V+/PI+ (%): 3%
  Annexin V+/PI− (%): 1%
  Annexin V−/PI− (%): 96%
[25]
  Annexin V+/PI+ (%): 4%
  Annexin V+/PI− (%): 4%
  Annexin V−/PI− (%): 92%
[26]
  Annexin V+/PI+ (%): 4%
  Annexin V+/PI− (%): 1%
  Annexin V−/PI− (%): 94%
[27]
  Annexin V+/PI+ (%): 86%
  Annexin V+/PI− (%): 6%
  Annexin V−/PI− (%): 8%
[28]
  Annexin V+/PI+ (%): 81%
  Annexin V+/PI− (%): 2%
  Annexin V−/PI− (%): 15%
[29]
  Annexin V+/PI+ (%): 92%
  Annexin V+/PI− (%): 4%
  Annexin V−/PI− (%): 3%
[30]
  Annexin V+/PI+ (%): 90%
  Annexin V+/PI− (%): 0%
  Annexin V−/PI− (%): 8%
[31]
  Annexin V+/PI+ (%): 96%
  Annexin V+/PI− (%): 2%
  Annexin V−/PI− (%): 1%
[32]
  Annexin V+/PI+ (%): 94%
  Annexin V+/PI− (%): 0%
  Annexin V−/PI− (%): 5%
[33]
  Annexin V+/PI+ (%): 98%
  Annexin V+/PI− (%): 2%
  Annexin V−/PI− (%): 1%
[34]
  Annexin V+/PI+ (%): 97%
  Annexin V+/PI− (%): 0%
  Annexin V−/PI− (%): 2%
